The results in this text go back to patent publication EP0677039B1, “CYCLOBUTANE DERIVATIVES AS INHIBITORS OF […] SYNTHETASE AND PROTEIN […]” (Abbott Laboratories, priority 1993, dated 1995).

The first experiment deals with Cholesterol Synthesis. Briefly: In vivo inhibition of cholesterol synthesis. As to conditions: Cynomolgus monkeys, 2 males and 2 females per group, 20 mg/kg, po, daily for a total of 5 days; average. The method, then: Monkeys, Cynomolgus, 2 males and 2 females per group, Controls: 3.7-6.1 Kg body weight, Dosed animals: 4.8-5.6 Kg body weight) were fasted overnight and bled in the morning. Plasma samples were prepared and analyzed for total cholesterol, HDL-cholesterol and triglycerides. […] Dosing was continued daily for a total of 5 days. Prior to the last dose the animals were fasted overnight and bled after dosing but before feeding. Plasma samples (anticoagulated with EDTA) were prepared and analyzed as before. One-sample t-tests were calculated to test for significant change within a group across the experiment.
Take `CCCN(Cc1ccc(Oc2ccccc2)cc1)C(=O)[C@H]1[C@@H](C(=O)O)[C@H](C(=O)O)[C@@H]1C(=O)N(CCC)Cc1ccc(Oc2ccccc2)cc1` (racemic) [Example 17, (1α,2β,3β,4α)-1,2-Di[N-propyl-N-(4-phenoxybenzyl)aminocarbonyl]cyclobutane-3,4-dicarboxylic acid]: the “Total plasma cholesterol was lowered” value amounted to 15.5%.

Another experiment has as its target T1, Rat liver microsomal squalene synthetase (Rattus norvegicus, UniProt Q02769).
T1 construct: Rat liver microsome, the source of enzyme; from tissue; host or cells: rat liver microsomes
T1 sequence (Q02769 1-416): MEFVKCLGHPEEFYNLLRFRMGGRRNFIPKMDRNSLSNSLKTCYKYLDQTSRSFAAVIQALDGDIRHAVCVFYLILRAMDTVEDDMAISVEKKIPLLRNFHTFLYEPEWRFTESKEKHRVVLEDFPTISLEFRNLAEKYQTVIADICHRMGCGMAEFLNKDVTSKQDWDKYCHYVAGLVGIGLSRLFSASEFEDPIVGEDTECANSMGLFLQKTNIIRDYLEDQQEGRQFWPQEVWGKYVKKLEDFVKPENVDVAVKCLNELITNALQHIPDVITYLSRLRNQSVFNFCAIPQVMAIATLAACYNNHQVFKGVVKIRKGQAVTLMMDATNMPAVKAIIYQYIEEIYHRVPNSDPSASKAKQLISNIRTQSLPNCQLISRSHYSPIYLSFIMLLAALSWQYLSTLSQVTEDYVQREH
Briefly: In vitro inhibition of squalene synthetase. It counts as biochemical. As to conditions: 10 µM test compound; rat liver microsomes, labelled farnesyl pyrophosphate, 10 minutes at 37 °C; compared to controls with no test compound. A digest of the protocol:
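Percent inhibition at 10 µM (or 1 µM), against controls without compound, was scored from radioactive squalene formed from labelled farnesyl pyrophosphate by rat liver microsomal enzyme. Incubations were kept oxygen-free with nitrogen and stopped with ethanolic KOH; squalene was isolated by hexane extraction and an alumina column.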
`COc1cccc(CCN(Cc2ccc(Oc3ccccc3)cc2)C(=O)C2C(C(=O)O)C(C(=O)O)C2C(=O)N(CCc2cccc(OC)c2)Cc2ccc(Oc3ccccc3)cc2)c1` (stereo not drawn) [Example 54B, (1α,2β,3β,4α)-1,2-Di[N-(4-phenoxybenzyl)-N-(3-methoxyphenethyl)aminocarbonyl]cyclobutane-3,4-dicarboxylic acid] displayed an inhibition at 10 µM of 74%. The same measure, in the same setting: to `CCCN(Cc1ccc(Oc2ccccc2)o1)C(=O)C1C(C(=O)O)C(C(=O)O)C1C(=O)N(CCC)Cc1ccc(Oc2ccccc2)o1` (stereo not drawn) [Example 82B, (1α,2β,3β,4α)-1,2-Di[N-propyl-N-(5-phenoxyfurfuryl)aminocarbonyl}cyclobutane-3,4-dicarboxylic acid] belongs 67%; to `O=C(O)C1C(C(=O)O)C(C(=O)N(Cc2ccc(Oc3ccccc3)cc2)CC2CC2)C1C(=O)N(Cc1ccc(Oc2ccccc2)cc1)CC1CC1` (stereo not drawn) [Example 47B, (1α,2β,3β,4α)-1,2-Di[N-(cyclopropylmethyl)-N-(4-phenoxybenzyl)aminocarbonyl]cyclobutane-3,4-dicarboxylic acid], 87%. The same measure, in the same setting: then `CCCN(Cc1ccc(OC2CCCCC2)cc1)C(=O)[C@H]1[C@@H](C(=O)O)[C@H](C(=O)O)[C@@H]1C(=O)N(CCC)Cc1ccc(OC2CCCCC2)cc1` [Example 61B, (1α,2β,3β,4α)-1,2-Di[N-propyl-N-(4-cyclohexyloxybenzyl)aminocarbonyl]cyclobutane-3,4-dicarboxylic acid], with 43%; and `CCCN(CCc1ccc(Oc2ccccc2)cc1)C(=O)[C@H]1[C@@H](C(=O)O)[C@H](C(=O)O)[C@@H]1C(=O)N(CCC)CCc1ccc(Oc2ccccc2)cc1` [Example 38H, (1α,2β,3β,4α)-1,2-Di[N-propyl-N-(2-(4-phenoxyphenyl)ethyl)aminocarbonyl]cyclobutane-3,4-dicarboxylic acid], with 51%. As to `CCCN(Cc1cccc(Oc2ccccc2)c1)C(=O)C1C(C(=O)O)C(C(=O)O)C1C(=O)N(CCC)Cc1cccc(Oc2ccccc2)c1` (stereo not drawn) [Example 81B, (1α,2β,3β,4α)-1,2-Di[N-propyl-N-(3-phenoxybenzyl)aminocarbonyl]cyclobutane-3.4-dicarboxylic acid], the inhibition at 10 µM is 73%.

`COCCN(Cc1ccc(Oc2ccccc2)cc1)C(=O)C1C(C(=O)O)C(C(=O)O)C1C(=O)N(CCOC)Cc1ccc(Oc2ccccc2)cc1` (stereo not drawn) [Example 40B, (1α,2β,3β,4α)-1,2-Di[N-(2-methoxyethyl)-N-(4-phenoxybenzyl)aminocarbonyl]cyclobutane-3,4-dicarboxylic acid]: testing at 10 µM gave an inhibition of 82%. For `O=C(O)[C@H]1[C@H](C(=O)O)[C@H](C(=O)OCc2ccc(Oc3ccccc3)cc2)[C@H]1C(=O)OCc1ccc(Oc2ccccc2)cc1` [Example 65B, (1α,2β,3β,4α)-1,2-Di-(4-phenoxybenzyloxycarbonyl)-3,4-dicarboxylic acid], 10 µM produced 58% inhibition.

`CCCN(Cc1ccc(Oc2ccc3ccccc3c2)cc1)C(=O)C1C(C(=O)O)C(C(=O)O)C1C(=O)N(CCC)Cc1ccc(Oc2ccc3ccccc3c2)cc1` (stereo not drawn) [Example 88, (1α,2β,3β,4α)-1,2-Di[N-propyl-N-(4-naphth-2-yloxybenzyl)aminocarbonyl]cyclobutane-3,4-dicarboxylic acid]: the inhibition at 10 µM amounted to 86%.

`CCCN(Cc1ccc(Oc2ccccc2)cc1)C(=O)[C@H]1[C@@H](C(=O)O)[C@H](C(=O)O)[C@@H]1C(=O)N(Cc1ccccc1)Cc1ccc(Oc2ccccc2)cc1` [Example 63, (1α,2β,3β,4α)-1-[N-Propyl-N-(4-phenoxybenzyl)aminocarbonyl]-2-[N-benzyl-N-(4-phenoxybenzyl)aminocarbonyl]cyclobutane-3,4-dicarboxylic acid] displayed an inhibition at 10 µM of 90%. The compound `CCCN(Cc1ccc(Oc2ccccc2)cc1)C(=O)[C@@H]1[C@H](C(=O)C=[N+]=[N-])[C@@H](C(=O)C=[N+]=[N-])[C@H]1C(=O)N(CCC)Cc1ccc(Oc2ccccc2)cc1` (relative stereo) [Example 102, (1α,2β,3β,4α)-3,4-Bis(diazoacetyl)-1,2-di[N-propyl-N-(4-phenoxybenzyl)aminocarbonyl]cyclobutane] registered an inhibition at 10 µM of 58%.

The experiment is the same for the next values; noted with them: values marked * in Table 1: 1 µM test compound; rat liver microsomes, labelled farnesyl pyrophosphate, 10 minutes at 37 °C.
The compound `CCCN(Cc1ccc(Oc2ccccc2)cc1)C(=O)C1C(C(=O)O)C(C(=O)N(C)CC(=O)O)C1C(=O)N(CCC)Cc1ccc(Oc2ccccc2)cc1` (stereo not drawn) [Example 108, (1α,2β,3β,4α)-1,2-Di[N-propyl-N-(4-phenoxybenzyl)aminocarbonyl]cyclobutane-3,4-dicarboxylic acid mono-Sarcosine amide] gave an inhibition at 1 µM of 59%. For `CCCN(Cc1ccc(Oc2ccccc2)cc1)C(=O)C1C(C(=O)O)C(C(=O)NCCC(=O)O)C1C(=O)N(CCC)Cc1ccc(Oc2ccccc2)cc1` (stereo not drawn) [Example 111, (1α,2β,3β,4α)-1,2-Di[N-propyl-N-(4-phenoxybenzyl)aminocarbonyl]cyclobutane-3,4-dicarboxylic acid mono-β-Alanine amide], the inhibition at 1 µM was 49%.

Compound `O=C(O)C1C(C(=O)O)C(C(=O)N(Cc2ccc(Oc3ccccc3)cc2)Cc2ccco2)C1C(=O)N(Cc1ccc(Oc2ccccc2)cc1)Cc1ccco1` (stereo not drawn) [Example 44, (1α,2β,3β,4α)-1,2-Di[N-(furan-2-ylmethyl)-N-(4-phenoxybenzyl)aminocarbonyl)cyclobutane-3,4-dicarboxylic acid] showed an inhibition at 1 µM of 56%. With `C[C@H](c1ccccc1)N(Cc1ccc(Oc2ccccc2)cc1)C(=O)[C@H]1[C@@H](C(=O)O)[C@H](C(=O)O)[C@@H]1C(=O)N(Cc1ccc(Oc2ccccc2)cc1)[C@H](C)c1ccccc1` [Example 35], the inhibition at 1 µM is 59%. Regarding `CCCN(Cc1ccc(Oc2ccccc2)cc1)C(=O)C1C(C=CC(=O)O)C(C(=O)O)C1C(=O)N(CCC)Cc1ccc(Oc2ccccc2)cc1` (stereo not shown) [Example 76B], the inhibition at 1 µM came out at 57%.

The experiment is the same for the next values; noted with them: values marked * in Table 1: 1 µM test compound; rat liver microsomes, labelled farnesyl pyrophosphate, 10 minutes at 37 °C; 1 µM.
`CCCN(Cc1ccc(Oc2ccccc2)cc1)C(=O)C1C(C(=O)O)C(C(=O)NC(CO)C(=O)O)C1C(=O)N(CCC)Cc1ccc(Oc2ccccc2)cc1` (single isomer, unassigned) [Example 110B, (1α,2β,3β,4α)-1,2-Di[N-propyl-N-(4-phenoxybenzyl)aminocarbonyl]cyclobutane-3,4-dicarboxylic acid mono-Serine amide]: the “% Inhibition at 1 µM” value is on record as 69* %. For the compound “(1α,2β,3β,4α)-1,2-Di[N-propyl-N-(4-phenoxybenzyl)aminocarbonyl]cyclobutane-3-phenoxycarbonyl-4-carboxylic acid [Example 105A]”, the “% Inhibition at 1 µM” value is listed as 48* %.

As a reminder, the inhibition is the relative decrease from the control value, in per cent.
